Results from patent US9427439B1, “Methods and compositions for recovery from stroke” (EIP Pharma, LLC, priority 2015, dated 2016).

What was measured:
animal models of stroke = conditions: administered 24-hours after stroke; cited from earlier work
[1] = system: IL-1β production and signaling; conditions: cited from earlier work
[2] = tMCAO study: body weight, clinical signs, mortality; assay type: in vivo, rat
Description: Altogether 76 adult male Sprague Dawley rats, purchased from Harlan Laboratories, (Israel), and weighing 300-350 g were used for the experiment. Animals were housed at a standard temperature (20-24° C.) and in a light-controlled environment (12 hours light/12 hours dark) with ad libitum access to food and water.
(§1) Group 1M: 20 tMCAO animals treated twice-a-day with vehicle from Day 3 (day 1 being day of stroke surgery) to Day 42 (via PO gavage)
(§2) Group 2M: 22 tMCAO animals treated twice-a-day with VX-745 (1.5 mg/kg) from Day 3 (day 1 being day of stroke surgery) to Day 42 (via PO gavage)
(§3) Group 3M: 21 tMCAO animals treated twice-a-day with VX-745 (4.5 mg/kg) from Day 3 (day 1 being day of stroke surgery) to Day 42 (via PO gavage)
Animals were handled at a minimum for three days before the surgery. Baseline measures were taken before stroke was induced. Stroke surgery occurred on Day 1. On Day 2, 24 hours post-stroke surgery, Neuroscore testing was performed. Only animals reaching and exceeding Neuroscore criteria was included in the study. On Days 3-42, treatment with vehicle or VX-745 was administered twice a day for 40 days via PO (oral) gavage for all groups. Behavioral tests for all groups were conducted on weeks 4 and 6. Animals were sacrificed on Day 44 and brains were harvested.
Statistical analysis was performed when applicable by two-way ANOVA for repeated measures, followed by Bonferroni post-hoc tests for all the data presented in the results section (*p<0.05; **p<0.01; ***p<0.001).

[3] = system: rat model of stroke (transient MCAO); assay: tMCAO rat stroke model: forelimb placement test; assay type: in vivo; conditions: Groups 2M (1.5 mg/kg) and 3M (4.5 mg/kg), PO twice a day; Week 4 and Week 6
Description: as §1, §2, §3
(§4) Transient middle cerebral artery occlusion was performed according to the method described in R. Schmid-Elsaesser et al., Stroke, 29(10):2162-2170 (1998). The right Common Carotid Artery (CCA) was exposed through a midline neck incision and carefully dissected free from surrounding nerves and fascia—from its bifurcation to the base of the skull. The occipital artery branches of the ECA (External Carotid Artery) were then isolated, and these branches were dissected and coagulated. The ECA was dissected further distally and coagulated along with the terminal lingual and maxillary artery branches, which was then divided. The ICA (Internal Carotid Artery) was isolated and carefully separated from the adjacent vagus nerve, and the pterygopalatine artery was ligated close to its origin with a 5-0 nylon suture (SMI, Belgium). […]

[4] = system: rat model of stroke (transient MCAO); assay: tMCAO rat stroke model: Neuroscore (mNSS); assay type: in vivo; conditions: Groups 2M (1.5 mg/kg) and 3M (4.5 mg/kg), PO twice a day from Day 3 to Day 42
Description: as §1, §2, §3, §4

[5] = brain distribution in pre-clinical studies; assay type: in vivo
Source text: The inhibition of MAPK by VX-745 blocks the downstream synthesis of inflammatory cytokines TNF-α and IL-1β. […] VX-745 preferentially distributes to the brain with drug concentrations in the brain in pre-clinical studies being approximately two-fold higher than in the blood. Stroke

[6] = system: rat model of stroke (transient MCAO); assay: tMCAO rat stroke model: stepping test; assay type: in vivo; conditions: Groups 2M (1.5 mg/kg) and 3M (4.5 mg/kg), PO twice a day; Week 4 up to Week 6
Description: as §1, §2, §3
(§5) Transient middle cerebral artery occlusion was performed according to the method described in R. Schmid-Elsaesser et al., Stroke, 29(10):2162-2170 (1998). The right Common Carotid Artery (CCA) was exposed through a midline neck incision and carefully dissected free from surrounding nerves and fascia—from its bifurcation to the base of the skull. The occipital artery branches of the ECA (External Carotid Artery) were then isolated, and these branches were dissected and coagulated. […]
Animals were tested for forelimb akinesia in a stepping test (ST). The animal was held with its hind limbs fixed in one hand and the forelimb, not to be monitored, in the other, while the unrestrained fore-paw touches the table. The number of adjusting steps were counted while the animal was moved sideways along the table surface (85 cm during approximately five seconds), in the forehand & backhand direction for both forelimbs. […]

[7] = treatment of rheumatoid arthritis; cited from earlier work
IL-1β = IL-1β ELISA of brain at termination of tMCAO study; assay type: in vivo, rat; conditions: right minus left hemisphere; Groups 2M and 3M versus 1M; n=18 per group
Source text: The brains of all animals were harvested on Day 44. Rats were sacrificed by CO2 inhalation. Brains were harvested from all animals in each group, divided to left and right hemisphere, weighed, and snap frozen.
Brains were harvested at study termination. Each brain was dissected into two hemispheres and each hemisphere was weighed and enclosed into tubes marked Left or Right. Each tube was immediately frozen in liquid nitrogen and stored at (−80)° C. The tissues were defrosted and homogenized in 1 ml/200 mg tissue of 20 mM Tris-HCL pH 7.4 containing a protease inhibitor cocktail (50 μl/ml). Samples were centrifuged at 10,000 g for 15 min at 4°. Clear supernatants were aliquoted (150 μl/aliquot) and stored at (−80)° C. until ELISA assays were performed. ELISA assay was executed according to kit instructions. Standards and samples were tested in duplicates.
Following study termination, animals were also tested for IL-1β brain levels using the ELISA system (see FIG. 8 for standard curves). The variability of the results was too large to allow definitive conclusions. All the results below the Lower Limit of Quantification (LLOQ) were assigned the LLOQ value of 5 pg/ml. Then, results for the uninjured left side were subtracted from the results of the right side. The distribution for individual rats is given in the figure below (n=18 in each of the study groups) (FIG. 9).

[8] = system: cytokine production (TNF-α and IL-1β) in whole blood; conditions: inhibition of cytokine production (anti-inflammatory activity); cited from earlier work
cytokine signaling = conditions: cited from earlier work
[9] = system: rat model of stroke (transient MCAO); assay: tMCAO rat stroke model: body swing test; assay type: in vivo
Description: as §1, §2, §3, §5
The rat was held approximately one inch from the base of its tail. […] A swing was recorded whenever the rat moved its head out of the vertical axis to either side. Before attempting another swing, the rat had must return to the vertical position for the next swing to be counted. Twenty (20) total swings were counted. […] Body swing scores were expressed as a percentage of rightward over total swings. […]

Compound | effect on recovery from neurologic deficit (animal models of stroke) | IL-1β production and signaling in vitro [1] | body weight, differences between groups ([2]; all groups through the study, two-way ANOVA, Bonferroni) | rats that died after treatment initiation ([2]; group 2M (1.5 mg/kg), within two weeks of treatment initiation) | general clinical signs, differences between groups ([2]; tMCAO rats, 1.5 and 4.5 mg/kg PO twice a day) | forelimb placement test score versus vehicle control group 1M [3] | neuroscore delta (change from Day 2 to Week 4 or Week 6) versus vehicle control group 1M [4] | absolute neuroscore versus vehicle control group 1M ([4]; Weeks 4 and 6) | drug concentrations in the brain versus in the blood [5] | stepping test (left forelimb), number of steps versus vehicle control group 1M [6] | mean blood concentration [7] | IL-1β levels in the brain at study termination, between the groups (IL-1β) | whole blood IC50 [8] [µg/mL] | IC50 for inhibition of cytokine signaling relative to IC50 for cytokine production (cytokine signaling) | body swing test (difference between left turn and right turn) versus vehicle control group 1M ([9]; Groups 2M (1.5 mg/kg) and 3M (4.5 mg/kg), PO twice a day) | body swing test, extent of recovery ([9]; particularly in the 4.5 mg/kg dose group)
C[S+]([O-])c1ccc(-c2nc(-c3ccc(F)cc3)c(-c3ccncc3)[nH]2)cc1 (stereo not shown) [SB203850] | no significant effect | – | – | – | – | – | – | – | – | – | – | – | – | – | – | –
O=c1ncn2nc(Sc3ccc(F)cc3F)ccc2c1-c1c(Cl)cccc1Cl [VX-745] | – | inhibits IL-1β production and signaling in vitro | No statistically significant differences | one | no observed differences | Statistically significant differences | statistically significant difference | statistically significant difference | approximately two-fold | statistically significant difference | approximately 75 ng/mL | No statistically significant differences | 0.065 to 0.08 | half that for cytokine production | statistically significant difference | near normalization
